According to US4518789A, “Phenyl alpha-acyloxyacetamide derivatives and their therapeutic use” (priority 1983, dated 1985):

Each compound was assayed on calming or sedative effects (assay: Tranquilizing effect, oral administration in dogs). Details: not given.
Format: in vivo
Description: Hairless mice, white hairy mice and dogs were used in these studies.
Three dogs weighing between 10 to 20 kg were given orally N-phenethyl phenyl-alpha-acetoxyacetamide or N-ethyl phenyl-alpha-acetoxyacetamide in gelating capsules at doses of 5 to 10 mg per kg.

Structure (SMILES) | soporific or drowsy effects
CN1C(=O)CN=C(c2ccccc2)c2cc(Cl)ccc21 [Valium] | soporific and drowsy effects
CN(C)CCOC(c1ccccc1)c1ccccc1 [Benadryl] | soporific and drowsy effects

Same assay, conditions: test compounds 5 to 10 mg per kg

Structure (SMILES) | tranquilizing / sedative effect
CN1C(=O)CN=C(c2ccccc2)c2cc(Cl)ccc21 [Valium] | substantial sedative effects
CN(C)CCOC(c1ccccc1)c1ccccc1 [Benadryl] | substantial sedative effects

These compounds were tested on itch provoked by papain or histamine dihydrochloride (assay: Anti-pruritic effect on normal human skin (papain or histamine induced itch)). Details: 2 to 5% topical, normal human adult volunteers.
Format: in vivo
Description: Itch provoking pruritic compositions were prepared as follows: papain 0.5% solution was prepared by dissolving papain 50 mg in 10 ml of saline, and histamine 0.2% solution was prepared by dissolving histamine dihydrochloride 20 mg in 10 ml of saline. Itching was provoked or induced as follows: a pruritic composition in a volume of 0.05 ml containing papain or histamine dihydrochloride as a pruritic agent was topically applied on the flexor forearm of normal human adult volunteers and the skin site was gently pricked rapidly through the solution with a 26-gauge needle to the level of the papillary dermis as described by Bernstein et al. (J. E. Bernstein, R. M. Swift, K. Soltani and A. L. Lorincz: Antipruritic Effect of an Opiate Antagonist, Naloxone Hydrochloride in Journal of Investigative Dermatology 78, 82-83, 1982). This technique provoked or induced itch sensation at the test skin site within a few minutes following the topical application of the pruritic composition. After itch sensation had been induced a composition containing 2 to 5% N-ethyl phenyl-alpha-acetoxyacetamide, N-phenethyl phenyl-alpha-acetoxyacetamide or other phenyl-alpha-acyloxyacetamide derivatives of the instant invention was topically applied on the pruritic skin site. The vehicle alone cream containing no active ingredient was used as a control.

Structure (SMILES) | Anti-pruritic Effect
CC(=O)OC(C(=O)NCCc1ccccc1)(c1ccccc1)c1ccccc1 [N-phenethyl diphenyl-alpha-acetoxyacetamide] | substantial anti-pruritic effect

What follows are compounds tested on Eczemas, and Other Pruritic Disorders (assay: Topical anti-pruritic effect in patients with pruritic disorders). Details: 2 to 5%, after initial anti-pruritic effect.
Format: in vivo, human
Description: Patients with various kinds of pruritic disorders participated in this study. The cases included atopic eczema, patchy eczema, chronic eczema of the hands, lichen simplex chronicus, contact allergic eczema, pruritus of the aged, pruritus of hepatic origin, pruritus ani, pruritus vulvae, scalp pruritus and pruritus of other disorders such as mycosis fungoides, psoriasis and pityriasis rubra pilaris.
Therapeutic compositions containing phenyl-alpha-acyloxyacetamides at 2 to 5% concentrations in cream, ointment, lotion or solution were prepared according to the Examples. The medicinal compositions were topically applied by the patient in an amount sufficient to cover the itching area of skin. Applications were made one to two times daily or as frequently as necessary and without occlusive dressings.
Two parameters have been used to compare degrees of anti-pruritic effect of phenyl-alpha-acyloxyacetamides. The first parameter is whether the relief of itching is complete (2+) or incomplete (1+). The second parameter is the number of hours the patient stays free of pruritus after the initial anti-pruritic effect. […] Therefore, the overall anti-pruritic effect of a compound may range from 2+ to 4+. […] 4+ for complete relief and lasting for more than 8 hours.

Structure (SMILES) | duration of anti-pruritic effect
CCC(=O)OC(C(=O)NCCc1ccccc1)(c1ccccc1)c1ccccc1 [N-phenethyl diphenyl-alpha-propionyloxyacetamide] | less than 8 hours

Same assay, conditions: all patients tested

Structure (SMILES) | relief of itching (in words)
CCC(=O)OC(C(=O)NCCc1ccccc1)(c1ccccc1)c1ccccc1 [N-phenethyl diphenyl-alpha-propionyloxyacetamide] | completely abolished itch sensations

Same assay, conditions: first category compounds, 2 to 5%

Structure (SMILES) | Anti-pruritic Effect
COc1ccc(CCNC(=O)C(OC(C)=O)c2ccccc2)cc1 (stereo not drawn) [N-p-methoxyphenethyl phenyl-alpha-acetoxyacetamide] | 4+ (complete relief and lasting for more than 8 hours)
CC(=O)OC(C(=O)N(Cc1ccccc1)Cc1ccccc1)c1ccccc1 (stereo not drawn) [N,N-dibenzyl phenyl-alpha-acetoxyacetamide] | 3+
CC(=O)OC(C(=O)NC(C)C)c1ccccc1 (stereo not drawn) [N-isopropyl phenyl-alpha-acetoxyacetamide] | 3+
CC(=O)OC(C(=O)NCCSCCO)c1ccccc1 (stereo not drawn) [N-hydroxyethylthioethylphenyl-alpha-acetoxyacetamide] | 3+
CC(=O)OC(C(=O)NCc1ccc(Cl)cc1)c1ccccc1 (stereo not drawn) [N-p-chlorobenzyl phenyl-alpha-acetoxyacetamide] | 4+ (complete relief and lasting for more than 8 hours)
CCN(CC)C(=O)C(OC(C)=O)c1ccccc1 (stereo not drawn) [N,N-diethyl phenyl-alpha-acetoxyacetamide] | 4+ (complete relief and lasting for more than 8 hours)
CNC(=O)C(OC(C)=O)c1ccccc1 (stereo not drawn) [N-methyl phenyl alpha-acetoxyacetamide] | 3+
COc1ccc(CNC(=O)C(OC(C)=O)c2ccccc2)cc1 (stereo not drawn) [N-p-methoxybenzyl phenyl-alpha-acetoxyacetamide] | 4+ (complete relief and lasting for more than 8 hours)
CC(=O)OC(C(=O)NCc1ccccc1)c1ccccc1 (stereo not drawn) [N-benzyl phenyl-alpha-acetoxyacetamide] | 4+ (complete relief and lasting for more than 8 hours)
CCNC(=O)C(OC(=O)Cc1ccccc1)c1ccccc1 (stereo not drawn) [N-ethyl phenyl-alpha-phenylacetoxyacetamide] | 4+ (complete relief and lasting for more than 8 hours)
CC(=O)OC(C(=O)NC(C)(C)C)c1ccccc1 (stereo not drawn) [N-t-butyl phenyl-alpha-acetoxyacetamide] | 4+ (complete relief and lasting for more than 8 hours)
CCC(=O)OC(C(=O)NCCc1ccccc1)c1ccccc1 (stereo not drawn) [N-phenethyl phenyl-alpha-propionyloxyacetamide] | 3+
COc1ccc(CCNC(=O)C(OC(C)=O)c2ccccc2)cc1OC (stereo not drawn) [N-(3,4 -dimethoxyphenethyl)phenyl-alpha-acetoxyacetamide] | 4+ (complete relief and lasting for more than 8 hours)

Same assay, conditions: intermediate and related compounds

Structure (SMILES) | Anti-pruritic Effect
CC(=O)OC(C(=O)OC(C(=O)NCCc1ccccc1)c1ccccc1)c1ccccc1 (stereo not drawn) [N-phenethyl phenyl-alpha-(o-acetylmandeloyloxy)acetamide] | 3+
CC(=O)OC(C(=O)NCc1cccnc1)c1ccccc1 (stereo not drawn) [N-3'-picolyl phenyl-alpha-acetoxyacetamide] | 3+
O=C(NCCc1ccccc1)C(O)c1ccccc1 (stereo not drawn) [N-phenethyl phenyl-alpha-hydroxyacetamide] | 3+
CCN(CC)CCNC(=O)C(OC(C)=O)c1ccccc1 (stereo not drawn) [N-(N',N'-diethylaminoethyl)phenyl-alpha-acetoxyacetamide] | 3+
